Measurements: PubChem BioAssay (NCI)
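At the GI50, growth is halved. TGI: total growth inhibition.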

Tests used:
Experiment in all cases: DTP human tumour cell line panel, 384-well format
UACC-62 melanoma = system: UACC-62 melanoma
RPMI-8226 leukemia = system: RPMI-8226 leukemia
SK-MEL-2 melanoma = system: SK-MEL-2 melanoma
DU-145 prostate = system: DU-145 prostate
OVCAR-3 ovarian = system: OVCAR-3 ovarian
SNB-19 CNS = system: SNB-19 CNS
SW-620 colon = system: SW-620 colon
IGROV1 ovarian = system: IGROV1 ovarian
TK-10 renal = system: TK-10 renal
786-0 renal = system: 786-0 renal
SNB-75 CNS = system: SNB-75 CNS
U251 glioblastoma = system: U251 glioblastoma
MOLT-4 leukemia = system: MOLT-4 leukemia

Row | Structure (SMILES) | GI50 (UACC-62 melanoma) | TGI (UACC-62 melanoma) | GI50 (RPMI-8226 leukemia) | TGI (RPMI-8226 leukemia) | GI50 (SK-MEL-2 melanoma) | TGI (SK-MEL-2 melanoma) | GI50 (DU-145 prostate) | TGI (DU-145 prostate) | GI50 (OVCAR-3 ovarian) | TGI (OVCAR-3 ovarian) | GI50 (SNB-19 CNS) | TGI (SNB-19 CNS) | GI50 (SW-620 colon) | TGI (SW-620 colon) | GI50 (IGROV1 ovarian) | TGI (IGROV1 ovarian) | GI50 (TK-10 renal) | TGI (TK-10 renal) | GI50 (786-0 renal) | TGI (786-0 renal) | also measured
1 | Cc1cc(-c2nc(C(=O)Nc3cc4oc(N5CCOCC5)nc4nc3N3CC[C@@H](O)C3)co2)ccn1 | 22.6 µM | > 100 µM | 15.5 µM | 39.4 µM | 15.5 µM | 41.6 µM | 34.1 µM | > 100 µM | 13.3 µM | 42 µM | 20.4 µM | > 100 µM | 28.5 µM | > 100 µM | 11.4 µM | 35.6 µM | 18.6 µM | > 100 µM | 43.4 µM | > 100 µM | GI50 (SNB-75 CNS): 11.2 µM; TGI (SNB-75 CNS): 58.8 µM; GI50 (U251 glioblastoma): 32.7 µM; TGI (U251 glioblastoma): > 100 µM; GI50 (MOLT-4 leukemia): 13.2 µM; TGI (MOLT-4 leukemia): 26.6 µM
2 | C[C@@H](Oc1cc(-n2cnc3ccc(CN4CCN(C)CC4)cc32)sc1C(N)=O)c1ccccc1C(F)(F)F | 0.613 µM | 2.1 µM | 0.25 µM | 0.734 µM | 0.272 µM | 0.839 µM | 0.346 µM | 1.21 µM | 0.227 µM | 0.534 µM | 1.18 µM | 15 µM | 0.34 µM | 1.51 µM | 0.844 µM | 11.4 µM | 1.22 µM | 6.03 µM | 1.17 µM | 2.73 µM | GI50 (SNB-75 CNS): 1.68 µM; TGI (SNB-75 CNS): 5.3 µM; GI50 (U251 glioblastoma): 0.689 µM; TGI (U251 glioblastoma): 5.08 µM; GI50 (MOLT-4 leukemia): 0.193 µM; TGI (MOLT-4 leukemia): 0.342 µM
